Assays:
false cleavers [1] = assay: Test Example 5: herbicidal effect by foliage application, plastic box (Table 20, symbol Q); type: in vivo, false cleavers (Galium spurium); details: foliage application; for effect on false cleavers (Q) / herbicidal effect on Q: false cleavers / herbicidal effect grade, Q: false cleavers: 320 g/ha; for effect on false cleavers (Q): 3 weeks after application; for herbicidal effect on Q: false cleavers / Q: false cleavers, herbicidal effect (criteria 0-5): evaluated three weeks after application
Summary of the method: (§1)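 Foliar spray test: emulsion formulation diluted in water to a set application rate, sprayed onto 14-day-old plants raised in diluvial soil at 25° C to 30° C under glass. Both herbicidal effect and crop effect rated visually three weeks later.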

transplanted rice = assay: Test Example 1: effect on crop, application before weed generation under submerged conditions (Table 16, symbol a); type: in vivo; details: 320 g/ha applied herbicide
Summary of the method: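 Alluvial soil was flooded to 4 cm depth, weed seeds were sown mixed and 2.5-leaf rice seedlings were transplanted. On sowing day, the compound's emulsion, diluted in water to a set dose, was applied to the water surface. Plants grew at 25–30 °C and were scored 0–5 after three weeks.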

directly sowed rice = assay: Test Example 3: effect on crop by foliage application, Wagner pot (Table 18, symbol b); type: in vivo; details: 320 g/ha
Summary of the method: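 Plants were sown in alluvial soil held under 0.1–0.5 cm standing water and grown 14 days in a greenhouse at 25–30 °C. An emulsifiable formulation, water-diluted to the set dose, was then sprayed onto the foliage, and effects were scored three weeks later using previously defined criteria.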

false cleavers [2] = assay: Test Example 4: herbicidal effect by soil treatment (Table 19, symbol Q); type: in vivo, false cleavers (Galium spurium)
Summary of the method: (§2)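 Herbicidal effect was rated 3 weeks after treatment, using the scoring criteria of an earlier test. The compound, formulated as an emulsion and diluted in water to a set herbicide amount, had been sprayed uniformly on soil over freshly sown seeds. Growth took place in a greenhouse at 25° C. to 30° C.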

corn [3] = assay: Test Example 4: effect on crop by soil treatment (Table 19, symbol c); type: in vivo; details: 320 g/ha
Summary of the method: as §2

soybean [4] = assay: Test Example 4: effect on crop by soil treatment (Table 19, symbol d); type: in vivo; details: 320 g/ha
Summary of the method: as §2

wheat [5] = assay: Test Example 4: effect on crop by soil treatment (Table 19, symbol e); type: in vivo; details: 320 g/ha
Summary of the method: as §2

beet [6] = assay: Test Example 4: effect on crop by soil treatment (Table 19, symbol f); type: in vivo; details: 320 g/ha
Summary of the method: as §2

rapeseed [7] = assay: Test Example 4: effect on crop by soil treatment (Table 19, symbol g); type: in vivo; details: 320 g/ha
Summary of the method: as §2

corn [8] = assay: Test Example 5: effect on crop by foliage application, plastic box (Table 20, symbol c); type: in vivo; details: 320 g/ha
Summary of the method: as §1

soybean [9] = assay: Test Example 5: effect on crop by foliage application, plastic box (Table 20, symbol d); type: in vivo; details: 320 g/ha
Summary of the method: as §1

wheat [10] = assay: Test Example 5: effect on crop by foliage application, plastic box (Table 20, symbol e); type: in vivo; details: 320 g/ha
Summary of the method: as §1

beet [11] = assay: Test Example 5: effect on crop by foliage application, plastic box (Table 20, symbol f); type: in vivo; details: 320 g/ha
Summary of the method: as §1

rapeseed [12] = assay: Test Example 5: effect on crop by foliage application, plastic box (Table 20, symbol g); type: in vivo; details: 320 g/ha
Summary of the method: as §1

[13] = evaluated three weeks after application
[14] = amount of applied herbicide 320 g/ha

## CCCC(=O)Oc1c(C)nn(C)c(=O)c1-c1c(-c2ccc(OC(C)C)cc2)sc2ccc(F)cc12 [2-035]
False cleavers [1]
  effect on false cleavers (Q): 4 (Herbicidal rate of 70% or more and less than 90%)

## CCCC(=O)Oc1c(C)nn(C)c(=O)c1-c1c(-c2ccc(F)cc2OCC)oc2ccc(C)cc12 [9-010]
False cleavers [1]; 246 g/ha, three weeks after application
  herbicidal effect on false cleavers (Q): 3 (Herbicidal rate of 40% or more and less than 70%)

## COc1cc(F)ccc1-c1sc2ccc(Cl)cc2c1-c1c(O)c(C)nn(C)c1=O [Compound No. 2-095, 4-(5-chloro-2-(4-fluoro-2-methoxyphenyl)benzo[b]thiophen-3-yl)-5-hydroxy-2,6-dimethylpyridazin-3(2H)-one]
Transplanted rice
  Effect on crop a: transplanted rice (grade 0-5): 0 (Herbicidal rate of 5% or less (almost no effect))
Directly sowed rice
  effect on crop b (directly sowed rice), rating 0-5: 1 (Herbicidal rate of 5% or more and less than 20%)
False cleavers [2]; 320 g/ha
  herbicidal effect rating, Q: false cleavers: 4 (Herbicidal rate of 70% or more and less than 90%)
Corn [3]
  effect rating on crop, c: corn: 0 (Herbicidal rate of 5% or less (almost no effect))
Soybean [4]
  effect rating on crop, d: soybean: 0 (Herbicidal rate of 5% or less (almost no effect))
Wheat [5]
  effect rating on crop, e: wheat: 0 (Herbicidal rate of 5% or less (almost no effect))
Beet [6]
  effect rating on crop, f: beet: 4 (Herbicidal rate of 70% or more and less than 90%)
Rapeseed [7]
  effect rating on crop, g: rapeseed: 1 (Herbicidal rate of 5% or more and less than 20%)
False cleavers [1]
  herbicidal effect on Q: false cleavers: 5 (Herbicidal rate of 90% or more (almost completely withered))
Corn [8]; [13]
  effect on crop, c: corn: 1 (Herbicidal rate of 5% or more and less than 20%)
Soybean [9]; [13]
  effect on crop, d: soybean: 4 (Herbicidal rate of 70% or more and less than 90%)
Wheat [10]; [13]
  effect on crop, e: wheat: 1 (Herbicidal rate of 5% or more and less than 20%)
Beet [11]; [13]
  effect on crop, f: beet: 5 (Herbicidal rate of 90% or more (almost completely withered))
Rapeseed [12]; [13]
  effect on crop, g: rapeseed: 5 (Herbicidal rate of 90% or more (almost completely withered))
other
  melting point: 221 to 223 °C

## CCCCOc1ccc(-c2sc3ccccc3c2-c2c(O)c(C)nn(C)c2=O)cc1 [1-024]
False cleavers [2]; [14]
  herbicidal effect rating, Q: false cleavers: 0 (Herbicidal rate of 5% or less (almost no effect))
False cleavers [1]; three weeks after application
  herbicidal effect grade, Q: false cleavers: 4 (Herbicidal rate of 70% or more and less than 90%)

## CCCC(=O)Oc1c(C)nn(C)c(=O)c1-c1c(-c2ccc(OC)cc2)sc2ccc(F)cc12 [2-027]
False cleavers [2]; 320 g/ha
  herbicidal effect rating, Q: false cleavers: 0 (Herbicidal rate of 5% or less (almost no effect))
False cleavers [1]
  effect on false cleavers (Q): 0 (Herbicidal rate of 5% or less (almost no effect))

## Cc1nn(C)c(=O)c(-c2c(-c3ccc(OC(C)C)cc3)sc3ccccc23)c1O [1-020]
False cleavers [2]; [14]
  herbicidal effect rating, Q: false cleavers: 0 (Herbicidal rate of 5% or less (almost no effect))

## Cc1nn(C)c(=O)c(-c2c(-c3ccc(Cl)cc3)sc3ccc(F)cc23)c1O [Compound No. 2-010, 4-(2-(4-chlorophenyl)-5-fluorobenzo[b]thiophen-3-yl)-5-hydroxy-2,6-dimethylpyridazin-3(2H)-one]
Transplanted rice
  Effect on crop a: transplanted rice (grade 0-5): 0 (Herbicidal rate of 5% or less (almost no effect))
Directly sowed rice
  effect on crop b (directly sowed rice), rating 0-5: 0 (Herbicidal rate of 5% or less (almost no effect))
Corn [3]
  effect rating on crop, c: corn: 0 (Herbicidal rate of 5% or less (almost no effect))
Soybean [4]
  effect rating on crop, d: soybean: 0 (Herbicidal rate of 5% or less (almost no effect))
Wheat [5]
  effect rating on crop, e: wheat: 0 (Herbicidal rate of 5% or less (almost no effect))
Beet [6]
  effect rating on crop, f: beet: 3 (Herbicidal rate of 40% or more and less than 70%)
Rapeseed [7]
  effect rating on crop, g: rapeseed: 3 (Herbicidal rate of 40% or more and less than 70%)
Corn [8]; 3 weeks after application
  effect on corn (c): 0 (Herbicidal rate of 5% or less (almost no effect))
Soybean [9]; 3 weeks after application
  effect on soybean (d): 3 (Herbicidal rate of 40% or more and less than 70%)
Wheat [10]; 3 weeks after application
  effect on wheat (e): 0 (Herbicidal rate of 5% or less (almost no effect))
Beet [11]; 3 weeks after application
  effect on beet (f): 5 (Herbicidal rate of 90% or more (almost completely withered))
Rapeseed [12]; 3 weeks after application
  effect on rapeseed (g): 5 (Herbicidal rate of 90% or more (almost completely withered))
other
  melting point: 258 to 259 °C

## Cc1nn(C)c(=O)c(-c2c(-c3ccc4c(c3)OCCO4)sc3ccccc23)c1O [1-089]
False cleavers [2]; [14]
  herbicidal effect rating, Q: false cleavers: 5 (Herbicidal rate of 90% or more (almost completely withered))

## Cc1nn(C)c(=O)c(-c2c(-c3ccc(OCC(F)F)cc3)sc3ccccc23)c1O [1-203]
False cleavers [1]
  effect on false cleavers (Q): 5 (Herbicidal rate of 90% or more (almost completely withered))

## COc1ccccc1-c1sc2cc(C)ccc2c1-c1c(O)c(C)nn(C)c1=O [3-049]
False cleavers [2]; amount of applied herbicide 274 g/ha
  Q: false cleavers, herbicidal effect grade: 3 (Herbicidal rate of 40% or more and less than 70%)
False cleavers [1]; 274 g/ha, three weeks after application
  Q: false cleavers, herbicidal effect grade: 5 (Herbicidal rate of 90% or more (almost completely withered))

## CCCC(=O)Oc1c(C)nn(C)c(=O)c1-c1c(-c2ccc(SC)cc2)sc2ccccc12 [1-037]
False cleavers [2]; [14]
  herbicidal effect rating, Q: false cleavers: 0 (Herbicidal rate of 5% or less (almost no effect))

## CCCOc1ccc(-c2sc3ccc(F)cc3c2-c2c(OC(=O)CCC)c(C)nn(C)c2=O)cc1 [2-033]
False cleavers [1]
  effect on false cleavers (Q): 5 (Herbicidal rate of 90% or more (almost completely withered))

## CCCOc1ccc(-c2sc3ccccc3c2-c2c(O)c(C)nn(C)c2=O)cc1 [1-019]
False cleavers [2]; [14]
  herbicidal effect rating, Q: false cleavers: 0 (Herbicidal rate of 5% or less (almost no effect))
False cleavers [1]; three weeks after application
  herbicidal effect grade, Q: false cleavers: 3 (Herbicidal rate of 40% or more and less than 70%)

## Cc1nn(C)c(=O)c(-c2c(-c3ccc(F)cc3)sc3ccc(F)cc23)c1O [2-001]
False cleavers [1]
  effect on false cleavers (Q): 5 (Herbicidal rate of 90% or more (almost completely withered))

## COc1ccccc1-c1sc2ccc(Cl)cc2c1-c1c(O)c(C)nn(C)c1=O [2-101]
False cleavers [2]; [14]
  Q: false cleavers, herbicidal effect rating: 5 (Herbicidal rate of 90% or more (almost completely withered))
False cleavers [1]
  herbicidal effect on Q: false cleavers: 5 (Herbicidal rate of 90% or more (almost completely withered))

## Cc1nn(C)c(=O)c(-c2c(-c3ccc(CSCC(F)(F)F)cc3)sc3ccc(F)cc23)c1O [2-331]
False cleavers [2]; [14]
  herbicidal effect on Q: false cleavers: 0 (Herbicidal rate of 5% or less (almost no effect))

## CCOc1ccccc1-c1sc2cc(OC)ccc2c1-c1c(O)c(C)nn(C)c1=O [3-070]
False cleavers [2]; amount of applied herbicide 80 g/ha
  Q: false cleavers, herbicidal effect grade: 1 (Herbicidal rate of 5% or more and less than 20%)
False cleavers [1]; 80 g/ha, three weeks after application
  Q: false cleavers, herbicidal effect grade: 5 (Herbicidal rate of 90% or more (almost completely withered))

## COc1cccc(S(=O)(=O)Oc2c(C)nn(C)c(=O)c2-c2c(-c3ccc(OC(F)F)cc3)sc3ccc(F)cc23)c1 [2-313]
False cleavers [1]; AAH 320 g/ha
  Q: false cleavers, herbicidal effect (criteria 0-5): 5 (Herbicidal rate of 90% or more (almost completely withered))

## C=CCOc1ccccc1-c1sc2ccccc2c1-c1c(O)c(C)nn(C)c1=O [1-110]
False cleavers [1]; AAH 320 g/ha, three weeks after application
  Q: false cleavers, herbicidal effect: 5 (Herbicidal rate of 90% or more (almost completely withered))

## C=CCOC(=O)Oc1c(C)nn(C)c(=O)c1-c1c(-c2ccc(OC(F)F)cc2)sc2ccc(F)cc12 [2-294]
False cleavers [1]; AAH 320 g/ha
  Q: false cleavers, herbicidal effect (criteria 0-5): 5 (Herbicidal rate of 90% or more (almost completely withered))

## CCCCOc1ccc(-c2sc3ccccc3c2-c2c(OC(=O)CCC)c(C)nn(C)c2=O)cc1 [1-025]
False cleavers [2]; [14]
  herbicidal effect rating, Q: false cleavers: 0 (Herbicidal rate of 5% or less (almost no effect))
False cleavers [1]; three weeks after application
  herbicidal effect grade, Q: false cleavers: 3 (Herbicidal rate of 40% or more and less than 70%)

## CCCC(=O)Oc1c(C)nn(C)c(=O)c1-c1c(-c2ccc3c(c2)OCO3)sc2ccc(F)cc12 [2-091]
False cleavers [1]
  herbicidal effect on Q: false cleavers: 4 (Herbicidal rate of 70% or more and less than 90%)
